The values below come from patent publication US20170349540A1, “HISTONE DEACETYLASE INHIBITORS” (The General Hospital Corporation, priority 2014, published 2017).

This data set in a line: Intravenous pharmacokinetics and brain distribution assay. The class given is in vivo, male Sprague Dawley rats. Conditions: single i.v. dose 1 mg/kg. How it is done:
Healthy male Sprague Dawley rats (8-12 weeks old) weighing between 200 to 250 g were procured from In vivo Bioscience, Bengluru, India. Three rats were housed in each cage. Temperature and humidity were maintained at 22±3° C. and 40-70%, respectively and illumination was controlled to give a sequence of 12 h light and 12 h dark cycle. Temperature and humidity were recorded by auto-controlled data logger system. All the animals were provided laboratory rodent diet (Vetcare India Pvt. Ltd, Bengaluru) ad libitum. Reverse osmosis water treated with ultraviolet light was provided ad libitum.
Sprague Dawley rats were intravenously administered a solution formulation of the compound of Example 2 prepared in 10% DMSO, 10% Tween 80, 80% normal saline. The blood samples were collected from a set of three rats at each time point in labeled micro centrifuge tube containing K2EDTA solution as anticoagulant. Plasma samples were separated by centrifugation of whole blood and stored at below −70° C. until bioanalysis. After collection of blood samples at each time point animals were humanely euthanized by CO2 and the brain was collected. Brain samples were homogenized using ice-cold phosphate buffer saline (pH=7.4) and homogenates were stored at below −70° C. until analysis. Total homogenate volume was three times the brain weight. All samples were processed for analysis by protein precipitation using acetonitrile and analyzed with fit-for-purpose LC-MS/MS method (LLOQ=1.01 ng/mL in plasma and brain). Pharmacokinetic parameters were calculated using the non-compartmental analysis tool of Phoenix WinNonlin® (Version 6.3).
The compound of Example 2 (5.89 mg) was added in a labeled bottle, followed by DMSO (2.945 mL), Tween 80 (2.945 mL), and normal saline (23.50 mL), and the resulting mixture was mixed by vortexing after each addition. The solution formulation was sonicated for 2 minutes to obtain a clear solution. After preparation of formulation, 200 μL samples were aliquoted for analysis. […] All formulations were freshly prepared prior to dosing. […]
Concentrations of the compound of Example 2 in rat plasma and brain samples were analyzed with fit-for-purpose by LC-MS/MS method. […] Following centrifugation, 100 µL of clear supernatant was transferred to a 96-well plate and analyzed using LC-MS/MS.
Non-Compartmental-Analysis module in Phoenix WinNonlin® (Version 6.3) was used to assess the pharmacokinetic parameters. […] The areas under the concentration time curve (AUClast and AUCinf) were calculated by linear trapezoidal rule. The terminal elimination rate constant, ke, was determined by regression analysis of the linear terminal portion of the log plasma concentration-time curve. […]

Consider `CN(Cc1ccc(/C=C/C(=O)Nc2ccccc2N)cc1)CC12CC3CC(CC(C3)C1)C2` [Example 2, (E)-3-(4-((((3r,5r,7r)-adamantan-1-ylmethyl)(methyl)amino)methyl)phenyl)-N-(2-aminophenyl)acrylamide], for which the “Vss relative to the normal volume of total body water (0.7 L/kg)” value is on record as 6 fold. Further, the Kp (male, Sprague Dawley, rat, brain/plasma, iv, read-out: brain-to-plasma exposure ratio) worked out at 8.35. This molecule returned a clearance (male, Sprague Dawley, rat, plasma, iv) of 79 mL/min/kg. Moreover, under “male, Sprague Dawley, rat, plasma, iv, read-out: elimination half-life (converted)”, the half-life was 54.6 min.
